Measured values reported in US11045455B2, “Azetidine derivative, preparation method therefor, and use thereof” (SICHUAN KELUN-BIOTECH BIOPHARMACEUTICAL CO., LTD., priority 2016, dated 2021).

How the values were obtained:
[1] = Pharmacokinetic study in Rhesus monkeys, intravenous (IV) administration; format: in vivo; conditions: male, rhesus monkey, plasma, IV administration at 0.5 mg/kg
Method: To study the pharmacokinetic characteristics of test compounds, the test compounds were administrated by an intravenous (IV) route to male Rhesus monkeys. The dosage for IV administration was 0.5 mg/kg. Blood was collected at various time points after the IV administration. Plasma samples were analyzed by LC-MS/MS after protein precipitation process with acetonitrile. Pharmacokinetic parameters were calculated with a non-compartmental model by using WinNonlin 6.3 software.

[2] = Pharmacokinetic study in rats, gavage (PO) administration; format: in vivo; conditions: male, SD, rat, plasma, po, gavage administration at 5 mg/kg, 0-24 h
Method: (§1) Experimental Example 3: Pharmacokinetic Studies
(§2) To study the pharmacokinetic characteristics of test compounds, the test compounds were administrated by intravenous (IV) and gavage (PO) routes to male SD rats. The dosage for IV administration was 1 mg/kg, and that for PO administration was 0.5-5 mg/kg. The vehicle is 10% DMSO: 10% solutol: 80% physiological saline, or 5% DMSO: 5% solutol: 90% physiological saline, or 10% DMSO: 60% PEG: 30% physiological saline. Blood was collected at various time points after administration. Plasma samples were analyzed by LC-MS/MS after protein precipitation process with acetonitrile.

[3] = tested on: Collagen-Induced Arthritis (CIA) Model in Rats; experiment: In vivo efficacy in collagen-induced arthritis (CIA) model in rats; set-up: species or system Lewis rats; Mean arthritis score: scale not given here
Method: Experimental Example 4: In Vivo Efficacy in Collagen-Induced Arthritis (CIA) Model in Rats
A mixed emulsion of bovine type II collagen and incomplete Freund's adjuvant 1:1 was injected at the back and the tail tip (3 sites) in Lewis rats. After 14 days, the paw thickness and paw volume of the rats were measured, and the arthritis development was scored. The day before the administration was set as DO, the animals were grouped based on paw volume, and the test compounds (vehicle: 5% DMSO+5% solutol) were gavage administered once a day for two weeks. The paw thickness and paw volume of the rats were measured, and the arthritis development was scored.

hERG potassium channel = hERG potassium channel (Homo sapiens (Human), UniProt Q12809); experiment: Predictor hERG Fluorescence Polarization Assay; format: binding; conditions: tested at 3, 10 and 30 μM
hERG potassium channel, sequence (Q12809 whole entry): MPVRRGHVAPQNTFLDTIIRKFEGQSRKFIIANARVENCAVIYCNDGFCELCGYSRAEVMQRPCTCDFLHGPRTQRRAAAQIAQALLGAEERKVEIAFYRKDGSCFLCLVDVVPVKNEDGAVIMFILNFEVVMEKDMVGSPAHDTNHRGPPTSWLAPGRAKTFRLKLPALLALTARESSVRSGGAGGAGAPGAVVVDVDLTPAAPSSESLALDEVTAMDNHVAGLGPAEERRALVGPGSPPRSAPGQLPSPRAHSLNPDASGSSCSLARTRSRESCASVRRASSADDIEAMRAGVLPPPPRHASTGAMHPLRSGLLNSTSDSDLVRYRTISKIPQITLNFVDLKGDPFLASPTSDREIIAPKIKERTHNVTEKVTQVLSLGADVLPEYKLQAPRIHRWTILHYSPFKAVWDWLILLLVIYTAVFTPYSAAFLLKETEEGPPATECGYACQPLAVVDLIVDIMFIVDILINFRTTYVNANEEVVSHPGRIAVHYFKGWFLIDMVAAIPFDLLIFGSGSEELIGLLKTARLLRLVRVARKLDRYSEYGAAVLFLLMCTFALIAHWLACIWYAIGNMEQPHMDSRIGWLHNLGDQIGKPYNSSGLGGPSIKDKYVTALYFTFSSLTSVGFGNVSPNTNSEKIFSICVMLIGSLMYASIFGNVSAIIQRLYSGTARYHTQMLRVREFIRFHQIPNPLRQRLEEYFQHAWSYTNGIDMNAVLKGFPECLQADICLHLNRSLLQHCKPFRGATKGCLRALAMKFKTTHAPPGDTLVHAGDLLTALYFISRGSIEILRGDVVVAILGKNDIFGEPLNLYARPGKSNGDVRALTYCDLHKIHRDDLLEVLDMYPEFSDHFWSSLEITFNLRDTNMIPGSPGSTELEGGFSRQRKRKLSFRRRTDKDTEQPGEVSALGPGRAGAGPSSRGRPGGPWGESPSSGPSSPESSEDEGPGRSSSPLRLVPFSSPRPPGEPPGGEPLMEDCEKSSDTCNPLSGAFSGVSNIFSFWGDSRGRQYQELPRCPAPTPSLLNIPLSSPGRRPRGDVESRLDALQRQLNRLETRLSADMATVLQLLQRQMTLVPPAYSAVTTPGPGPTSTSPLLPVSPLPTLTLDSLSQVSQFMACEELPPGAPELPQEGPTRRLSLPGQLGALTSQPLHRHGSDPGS
Method: Experimental Example 2: Safety Test
The effect of test compounds on hERG potassium channel were determined using Predictor™ hERG Fluorescence Polarization Assay at concentrations of 3, 10, and 30 μM.

TYK2 = TYK2 (Homo sapiens (Human), UniProt P29597); experiment: TYK2 enzymatic inhibition assay (LanthaScreen TR-FRET); format: biochemical
TYK2, sequence (P29597 whole entry): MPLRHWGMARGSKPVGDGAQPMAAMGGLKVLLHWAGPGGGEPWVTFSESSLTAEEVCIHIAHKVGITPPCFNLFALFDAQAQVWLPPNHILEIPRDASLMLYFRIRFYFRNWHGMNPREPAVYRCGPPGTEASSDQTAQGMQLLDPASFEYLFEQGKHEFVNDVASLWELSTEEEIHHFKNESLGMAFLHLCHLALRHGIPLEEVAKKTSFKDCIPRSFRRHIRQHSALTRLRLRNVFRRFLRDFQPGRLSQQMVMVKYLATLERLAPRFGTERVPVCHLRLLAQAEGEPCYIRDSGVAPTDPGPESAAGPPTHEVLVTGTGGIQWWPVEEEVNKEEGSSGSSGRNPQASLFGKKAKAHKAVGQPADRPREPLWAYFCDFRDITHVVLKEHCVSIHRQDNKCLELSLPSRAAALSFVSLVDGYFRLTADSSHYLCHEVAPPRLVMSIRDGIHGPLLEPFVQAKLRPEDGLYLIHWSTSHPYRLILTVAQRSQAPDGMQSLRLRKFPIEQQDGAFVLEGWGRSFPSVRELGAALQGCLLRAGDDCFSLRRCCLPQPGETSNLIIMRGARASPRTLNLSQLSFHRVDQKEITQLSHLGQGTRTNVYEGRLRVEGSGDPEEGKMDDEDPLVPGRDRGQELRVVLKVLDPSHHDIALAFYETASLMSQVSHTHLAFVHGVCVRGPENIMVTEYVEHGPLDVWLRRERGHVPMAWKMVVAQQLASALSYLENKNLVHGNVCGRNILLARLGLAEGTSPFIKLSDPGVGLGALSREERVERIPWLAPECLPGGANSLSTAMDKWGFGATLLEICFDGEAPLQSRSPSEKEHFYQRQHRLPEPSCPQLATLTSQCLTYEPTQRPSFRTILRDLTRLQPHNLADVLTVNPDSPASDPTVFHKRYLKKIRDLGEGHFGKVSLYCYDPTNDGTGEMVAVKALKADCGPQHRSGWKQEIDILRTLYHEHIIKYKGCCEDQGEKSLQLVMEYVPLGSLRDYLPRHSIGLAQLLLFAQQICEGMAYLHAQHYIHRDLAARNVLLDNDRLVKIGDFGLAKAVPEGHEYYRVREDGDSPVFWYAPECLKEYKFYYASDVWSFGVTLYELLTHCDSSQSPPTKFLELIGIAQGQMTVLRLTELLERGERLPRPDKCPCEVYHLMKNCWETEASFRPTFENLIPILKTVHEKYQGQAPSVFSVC
Method: (§3) Experimental Example 1: JAK1, JAK2, JAK3 and TYK2 Enzymatic Inhibition Assay
As for the TYK2 enzyme, Tb-anti-pSTAT1 was added, and incubation at room temperature was performed.

JAK3 = JAK3 (Homo sapiens (Human), UniProt P52333); experiment: JAK3 enzymatic inhibition assay (ADP-Glo luminescence); format: biochemical
JAK3, sequence (P52333 whole entry): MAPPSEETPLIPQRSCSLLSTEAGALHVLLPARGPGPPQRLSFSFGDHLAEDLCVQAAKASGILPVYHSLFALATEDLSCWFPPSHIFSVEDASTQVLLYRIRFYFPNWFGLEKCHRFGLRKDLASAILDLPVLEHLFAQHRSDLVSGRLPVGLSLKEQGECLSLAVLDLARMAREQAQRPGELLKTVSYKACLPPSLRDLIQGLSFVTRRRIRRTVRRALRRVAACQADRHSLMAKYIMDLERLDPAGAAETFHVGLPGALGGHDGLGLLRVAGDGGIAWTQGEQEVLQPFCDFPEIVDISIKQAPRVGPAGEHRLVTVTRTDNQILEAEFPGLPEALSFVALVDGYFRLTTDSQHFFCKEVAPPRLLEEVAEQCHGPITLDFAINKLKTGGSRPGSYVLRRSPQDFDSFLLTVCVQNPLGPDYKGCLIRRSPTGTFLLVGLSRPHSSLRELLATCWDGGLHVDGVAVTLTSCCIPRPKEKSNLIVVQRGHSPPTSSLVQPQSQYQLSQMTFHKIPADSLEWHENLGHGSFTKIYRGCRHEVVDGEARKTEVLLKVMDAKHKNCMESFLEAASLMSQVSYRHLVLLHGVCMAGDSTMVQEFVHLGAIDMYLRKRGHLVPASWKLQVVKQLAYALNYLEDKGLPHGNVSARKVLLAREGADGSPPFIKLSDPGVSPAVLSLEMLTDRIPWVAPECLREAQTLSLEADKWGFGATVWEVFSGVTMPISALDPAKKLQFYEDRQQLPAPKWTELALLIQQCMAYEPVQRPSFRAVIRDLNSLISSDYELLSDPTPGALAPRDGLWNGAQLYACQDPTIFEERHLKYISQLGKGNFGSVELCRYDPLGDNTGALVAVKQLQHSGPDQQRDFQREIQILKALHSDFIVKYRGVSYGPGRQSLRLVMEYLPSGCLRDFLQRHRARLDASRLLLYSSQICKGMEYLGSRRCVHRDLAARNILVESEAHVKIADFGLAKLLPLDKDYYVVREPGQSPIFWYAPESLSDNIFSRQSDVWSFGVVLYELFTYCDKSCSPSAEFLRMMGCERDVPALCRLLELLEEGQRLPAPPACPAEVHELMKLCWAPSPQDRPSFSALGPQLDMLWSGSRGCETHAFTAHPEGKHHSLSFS
Description: as §3

[4] = Pharmacokinetic study in rats, intravenous (IV) administration; format: in vivo; conditions: male, SD, rat, plasma, IV administration at 1 mg/kg
Method: as §1, §2

[5] = Pharmacokinetic study in Rhesus monkeys, gavage (PO) administration; format: in vivo; conditions: male, rhesus monkey, plasma, PO administration at 1 mg/kg
Method: To study the pharmacokinetic characteristics of test compounds, the test compounds were administrated by a gavage (PO) route to male Rhesus monkeys. The dosage for PO administration was 1 mg/kg. Blood was collected at various time points after the PO administration. Plasma samples were analyzed by LC-MS/MS after protein precipitation process with acetonitrile. Pharmacokinetic parameters were calculated with a non-compartmental model by using WinNonlin 6.3 software.

[6] = D0 (day before administration), 10 mg/kg group
[7] = D11, 10 mg/kg gavage once a day
[8] = D15, 10 mg/kg gavage once a day

CCS(=O)(=O)N1CC(CC#N)(n2cc(-c3ccnc4[nH]ccc34)cn2)C1 [Compound 8, 2-(3-(4-(1H-pyrrolo[2,3-b]pyridin-4-yl)-1H-pyrazol-1-yl)-1-(ethylsulfonyl)azetidin-3-yl)acetonitrile]
half-life [1]: 5.29 h
AUC(0-t) [2]: 14100 ng·h/mL
Mean arthritis score [3, 6]: 2.63
Mean paw thickness (mm) [3, 6]: 7.18 mm
Mean paw volume [3, 6]: 1.71 mL
Mean arthritis score ([3]; D4, 10 mg/kg gavage once a day): 1.38
Mean paw thickness (mm) ([3]; D4, 10 mg/kg gavage once a day): 6.04 mm
Mean paw volume ([3]; D4, 10 mg/kg gavage once a day): 1.47 mL
Mean arthritis score ([3]; D7, 10 mg/kg gavage once a day): 1.00
Mean paw thickness (mm) ([3]; D7, 10 mg/kg gavage once a day): 5.67 mm
Mean paw volume ([3]; D7, 10 mg/kg gavage once a day): 1.41 mL
Mean arthritis score [3, 7]: 1.00
Mean paw thickness (mm) [3, 7]: 5.56 mm
Mean paw volume [3, 7]: 1.42 mL
Mean arthritis score [3, 8]: 1.13
Mean paw thickness (mm) [3, 8]: 5.52 mm
Mean paw volume [3, 8]: 1.48 mL
IC50 (hERG potassium channel): > 30000 nM
IC50 (TYK2): 27.3 nM
IC50 (JAK3): 47.9 nM
AUC(0-t) ([4]; 0-24 h): 2650 ng·h/mL
half-life ([4]; read-out: T½ (converted)): 3.93 h
bioavailability [5]: 78.6%
AUC(0-t) ([5]; 0-24 h): 2600 ng·h/mL
half-life ([5]; read-out: T½ (converted)): 2.68 h
